For 62 compounds, melting point results are on record in patent publication US9572813B2, “Antiviral agent” (SHIONOGI & CO., LTD., priority 2001, dated 2017).

For `CN1CC(C(=O)c2cnn(Cc3ccc(F)cc3)c2)=C(O)C1=O`, the melting point lay within 150 to 151 °C.

Turning to `CC(C)N1CC(C(=O)c2cnn(Cc3ccc(F)cc3)c2)=C(O)C1=O`, the melting point lay in the range of 129.5 to 131 °C.

As for `CC(C)N1CC(C(=O)c2cnc(Cc3ccc(F)cc3)o2)=C(O)C1=O`, the melting point was 174 to 178 °C.

In the case of `CN1CC(C(=O)c2nc(Cc3ccc(F)cc3)co2)=C(O)C1=O`, the melting point was 209 to 210 °C.

In turn, `CN1CC(C(=O)c2cc(Cc3ccc(F)cc3)co2)=C(O)C1=O` registered a melting point of 143 to 145 °C.

Consider `COc1cc(F)ccc1Cc1ccc(C(=O)C2=C(O)C(=O)N(C)C2)o1`, for which the melting point lay in the range of 134 to 135 °C.

As to `COc1cc(Cc2ccc(C(=O)C3=C(O)C(=O)N(C(C)C)C3)o2)ccc1F`, the melting point is 160 to 161 °C.

Compound `COc1cc(Cc2ccc(C(=O)C3=C(O)C(=O)N(C)C3)o2)ccc1F` yielded a melting point of 164 to 166 °C.

For `CC(C)N1CC(C(=O)c2ccc(Cc3ccccc3)o2)=C(O)C1=O`, the melting point lay within 162 to 163 °C.

Compound `CN1CC(C(=O)c2ccc(Cc3ccccc3)o2)=C(O)C1=O` yielded a melting point of 116 to 118 °C.

For the compound `CN1CC(C(=O)c2oc(C3CCCCC3)cc2Cc2ccc(F)cc2)=C(O)C1=O`, the melting point lay in the range of 175 to 176 °C.

Consider `CCC(CC)N1CC(C(=O)c2ccc(Cc3ccc(F)cc3)o2)=C(O)C1=O`, for which the melting point lay within 140 to 141 °C.

In the case of `CN1CC(C(=O)c2cc(C(=O)NCc3ccccc3)c(Cc3ccc(F)cc3)o2)=C(O)C1=O`, the melting point lay within 181 to 184 °C.

Take `CC(C)N1C(=O)C(O)=C(C(=O)c2ccc(Cc3ccc(F)cc3)o2)C1C` (centres unmarked): the melting point fell in the range of 120 to 122 °C.

In turn, `C=CCN1CC(C(=O)c2ccc(Cc3ccc(F)cc3)o2)=C(O)C1=O` came in with a melting point of 95 to 96.5 °C.

`O=C(C1=C(O)C(=O)N(Cc2ccccc2)C1)c1ccc(Cc2ccc(F)cc2)o1` gave a melting point of 129 to 130 °C.

`CCC(O)CN1CC(C(=O)c2ccc(Cc3ccc(F)cc3)o2)=C(O)C1=O` (centres unmarked) came in with a melting point of 132 to 133 °C.

Regarding `CCCC(O)CN1CC(C(=O)c2ccc(Cc3ccc(F)cc3)o2)=C(O)C1=O` (centres unmarked), the melting point was determined as 171 °C.

Turning to `CN1CC(C(=O)c2ccoc2Cc2ccc(F)cc2)=C(O)C1=O`, the melting point was 171 to 172 °C.

Compound `O=C(C1=C(O)C(=O)N(CCO)C1)c1occc1Cc1ccc(F)cc1` yielded a melting point of 195 to 196 °C.

`COCCN1CC(C(=O)c2occc2Cc2ccc(F)cc2)=C(O)C1=O` registered a melting point of 170 °C.

On to `O=C(C1=C(O)C(=O)N(CC(O)CO)C1)c1occc1Cc1ccc(F)cc1` (centres unmarked), for which the melting point was in the range of 208 to 210 °C.

In turn, `CC(C)N1CC(C(=O)c2oc(Cc3ccc(F)cc3)cc2Cc2ccc(F)cc2)=C(O)C1=O` registered a melting point of 159 to 161 °C.

In turn, `CN1CC(C(=O)c2oc(C(C)(C)C)cc2Cc2ccc(F)cc2)=C(O)C1=O` yielded a melting point of 179 to 181 °C.

As to `Cc1ccc(-c2cc(Cc3ccc(F)cc3)c(C(=O)C3=C(O)C(=O)N(C)C3)o2)cc1`, the melting point fell in the range of 242 to 245 °C.

Turning to `CC(C)(C)c1cc(Cc2ccc(F)cc2)c(C(=O)C2=C(O)C(=O)N(C3CC3)C2)o1`, the melting point lay within 148 to 150 °C.

Take `CN1CC(C(=O)c2ccc(Cc3ccc(F)cc3)[nH]2)=C(O)C1=O`: the melting point lay within 221 to 223 °C.

`CN1CC(C(=O)c2c[nH]cc2Cc2ccc(F)cc2)=C(O)C1=O` displayed a melting point of 265 to 267 °C.

On to `CN1CC(c2ncc(CCc3ccc(F)cc3)s2)=C(O)C1=O`, for which the melting point is 214 to 216 °C.

On to `CN1CC(c2ncc(Cc3ccc(F)cc3)s2)=C(O)C1=O`, for which the melting point fell in the range of 222 to 224 °C.

`CC(C)N1CC(c2ncc(Cc3ccc(F)cc3)s2)=C(O)C1=O` yielded a melting point of 212 to 214 °C.

`CC(C)c1ccccc1COc1cc(C2=C(O)C(=O)N(C)C2)ncn1` registered a melting point of 240 to 241 °C.

In turn, `CN1CC(c2cc(CCc3ccc(F)cc3)ncn2)=C(O)C1=O` yielded a melting point of 225 to 228 °C.

Compound `CC(C)N1CC(c2cc(C(Cc3ccc(F)cc3)Cc3ccc(F)cc3)ncn2)=C(O)C1=O` came in with a melting point of 181 to 183 °C.

For the compound `CN1CC(c2ccc(Oc3ccccc3)cn2)=C(O)C1=O`, the melting point lay in the range of 200 to 202 °C.

In turn, `CC(C)N1CC(c2ccc(Oc3ccccc3)cn2)=C(O)C1=O` yielded a melting point of 181 to 183 °C.

Consider `CC(C)N1CC(c2ccc(Oc3ccc(F)cc3)cn2)=C(O)C1=O`, for which the melting point lay in the range of 178 to 179 °C.

The compound `CN1CC(c2ccc([S+]([O-])c3ccc(F)cc3)cn2)=C(O)C1=O` (centres unmarked) gave a melting point of 228 to 230 °C.

`CN1CC(c2ncc(Oc3ccccc3)cn2)=C(O)C1=O` yielded a melting point of 207 to 208 °C.

Compound `CN1CC(c2ncc(Oc3ccc(F)cc3)cn2)=C(O)C1=O` returned a melting point of 230 to 232 °C.

For the compound `CCC(CC)N1CC(c2cc(CCc3ccccc3)ncn2)=C(O)C1=O`, the melting point fell in the range of 182 to 183 °C.

As to `CC(C)N1CC(c2ncc(OCc3ccc(F)cc3)cn2)=C(O)C1=O`, the melting point lay within 219 to 221 °C.

`CN1CC(c2nccc(CCc3ccccc3)n2)=C(O)C1=O` had a melting point of 118 to 119 °C.

Compound `CN1CC(c2ccc(Oc3ccccc3)nn2)=C(O)C1=O` gave a melting point of 220 to 225 °C.

In turn, `CC(C)N1CC(c2ccc(Oc3ccc(F)cc3)nn2)=C(O)C1=O` had a melting point of 204 to 206 °C.

In turn, `CN1CC(c2cc(CCc3ccccc3)cnn2)=C(O)C1=O` came in with a melting point of 203 to 205 °C.

In turn, `CN1CC(c2cnc(Oc3ccccc3)cn2)=C(O)C1=O` had a melting point of 233 to 235 °C.

`CCOC(=O)c1oc2ccc(OCc3ccc(F)cc3)cc2c(=O)c1O` returned a melting point of 190 to 192 °C.

In turn, `Cn1cnc(-c2oc3cccc(OCc4ccc(F)cc4)c3c(=O)c2O)n1` showed a melting point of 264 to 266 °C.

For the compound `O=c1c(O)c(-c2nc[nH]n2)oc2cccc(OCc3ccc(F)cc3)c12`, the melting point lay within 254 to 256 °C.

The compound `O=c1c(O)c(-c2ncccn2)oc2cccc(OCc3ccc(F)cc3)c12` registered a melting point of 252 to 254 °C.

Regarding `Cn1ncnc1-c1oc2cccc(CCc3ccc(F)cc3)c2c(=O)c1O`, the melting point is 192 to 193 °C.

In turn, `O=c1c(O)c(-c2ncn(Cc3ccc(F)cc3)n2)oc2ccccc12` registered a melting point of 260 to 262 °C.

`O=C(c1ccc(Cc2ccc(F)cc2)o1)c1oc2ccccc2c(=O)c1O` had a melting point of 226 to 227 °C.

For the compound `Cn1c(-c2nnc(Cc3ccc(F)cc3)o2)c(O)c(=O)c2ccccc21`, the melting point is 222 °C.

Turning to `COCc1cc(=O)c(O)c(C(=O)c2ccc(Cc3ccc(F)cc3)o2)o1`, the melting point was in the range of 147 to 148 °C.

As to `COC(=O)c1cc(=O)c(O)c(C(=O)c2ccc(Cc3ccc(F)cc3)o2)o1`, the melting point lay within 174 to 176 °C.

Turning to `O=C(c1ccc(Cc2ccc(F)cc2)o1)c1oc(C(=O)N2CCCCC2)cc(=O)c1O`, the melting point is 146 to 148 °C.

Consider `N#Cc1cc(=O)c(O)c(C(=O)c2ccc(Cc3ccc(F)cc3)o2)o1`, for which the melting point was 190 to 194 °C (dec.).

`Cc1nc(=O)c(O)c(-c2ccc(Oc3ccc(F)cc3)cn2)[nH]1` displayed a melting point of 255 to 256 °C.

For `Cc1nc(=O)c(O)c(-c2nnc(Cc3ccc(F)cc3)o2)[nH]1`, the melting point lay within 283 to 286 °C.

In turn, `Cn1c(C(=O)c2ccc(Cc3ccc(F)cc3)o2)c(O)c(=O)n1C` came in with a melting point of 110 to 111 °C.
